{
  "source": "patent US20220211732A1",
  "about": "“PREBIOTIC COMPOSITIONS” (Evonik Operations GmbH, priority 2019, published 2022)",
  "key": {"[1]": {"system": "human intestinal microbiota", "experiment": "SCFA production after omega-3 amino acid salts and controls (Example 2)", "assay_type": "cell-based", "settings": "salts 1.4 mg/ml, FFA 0.96, Lys 0.49, Arg 0.52, Orn 0.5 mg/ml; for Acetate, change compared to control / Propionate, change compared to control / n-Butyrate, change compared to control: triplicates", "protocol": "(§1) To determine the effect of a EPA/DHA lysine salt (EPA/DHA-Lys) on adult colonic microbiota, an intestinal screening model was used (I-screen, TNO, the Netherlands). Therefore, the I-screen model was inoculated with standard human adult fecal microbiota material, which consisted of pooled fecal donations from six healthy adult volunteers (Caucasian, European lifestyle and nutrition). The fecal material was mixed and grown in a fed-batch fermenter for 40 hours to create a standardized microbiota as described previously.\n(§2) The intestinal microbiota was cultured in vitro in modified standard ileal efflux medium (SIEM), the composition of which was described by Minekus et al.. All components were supplied by Trititium Microbiology (Veldhoven, The Netherlands). The pH of the medium was adjusted to 5.8.\n(§3) For the I-screen fermentations, the pre-cultured standardized fecal inoculum was diluted 50 times in modified SIEM. EPA/DHA-Lys was introduced into the I-screen to final concentrations of 1.4 mg/ml and 1.5 mg/ml, respectively; omega-3 ethyl ester and fish oil at 1.4 mg/ml each. Inulin was added as a control at a final concentration of 4 mg/ml. […] All experiments were carried out in triplicates.\n(§4) For the analysis of short-chain fatty acids in exposed material from the I-screen, samples were centrifuged (˜4000 g, 5 min), clear supernatant was filter sterilized (0.45 μm) and a mixture of formic acid (20%), methanol and 2-ethyl butyric acid (internal standard, 2 mg/ml in methanol) was added.\nThe effects of different omega-3 amino acid salts omega-3-lysine (omega-3-lys), omega-3-arginine (omega-3-arg) and omega-3-ornithine (omega-3-orn) and their respective controls (free fatty acids (FFA), amino acids lysine (lys), arginine (arg) and ornithine (orn)) on SCFA production by an intestinal microbiota were analyzed."}, "[2]": {"system": "human fecal microbiota 1", "experiment": "TIM-2 in vitro colon model, SCFA production, microbiota 1 (Example 3)", "assay_type": "cell-based", "settings": "for Cumulative production of acetate / Cumulative production of butyrate / Cumulative production of propionate: lumen and dialysate, duplicates", "from_the_text": "To confirm the results for omega-3 amino acid salts, using omega-3 lysine as an example, an additional, independent and more advanced model of fermentation by the human colonic microbiota was applied, the TIM-2 model. Next to omega-3 lysine the prebiotic carbohydrate L-rhamnose was also applied. TIM-2 is an abbreviation of TNO's in vitro model-2, an advanced dynamic, computer-controlled in vitro model of the adult human colon. TIM-2 simulates to a high degree the successive dynamic processes in the colon and is predictive for what happens in human individuals. The following in vivo conditions are simulated in this model: body temperature, pH in the lumen, composition and rate of secretion, delivery of a pre-digested substrate from the ‘ileum’ (SIEM), mixing and transport of the intestinal contents, absorption of water and microbial metabolites and presence of a complex, high density, metabolically active, anaerobic fecal microbiota of human origin. The model was set-up and inoculated with the microbiota on the first day. Following an overnight adaptation period in SIEM, the test-products were fed at final concentrations of 1.4 mg/ml EPA/DHA-Lys or 1 mg/ml L-rhamnose in SIEM during an intervention period of 72 hrs. Cultivation in SIEM without any additional substance served as control condition. Samples were taken from the lumen and the dialysate every 24 hrs (t0, t24, t48 and t72) to study the metabolic activity of the gut microbiota (SCFA production) and changes in composition of the gut microbiota (16S rRNA gene analysis). Samples were analyzed for SCFA by ion-chromatography. […] The order of Pr/Ac for the 72 h treatments is control (SIEM)<L-rhamnose<EPA/DHA-Lys (ω-3)<L-rhamnose+EPA/DHA-Lys (ω-3)."}, "[3]": {"system": "human fecal microbiota 2", "experiment": "TIM-2 in vitro colon model, SCFA production, microbiota 2 (Example 6)", "assay_type": "cell-based", "settings": "for Cumulative production of acetate / Cumulative production of butyrate / Cumulative production of propionate: lumen and dialysate, duplicates", "from_the_text": "TIM-2 is an abbreviation of TNO's in vitro model-2, an advanced dynamic, computer-controlled in vitro model of the adult human colon. TIM-2 simulates to a high degree the successive dynamic processes in the colon and is predictive for what happens in human individuals. The following in vivo conditions are simulated in this model: body temperature, pH in the lumen, composition and rate of secretion, delivery of a pre-digested substrate from the ‘ileum’ (SIEM), mixing and transport of the intestinal contents, absorption of water and microbial metabolites and presence of a complex, high density, metabolically active, anaerobic fecal microbiota of human origin.\nThe model was set-up and inoculated with the microbiota on the first day. Following an overnight adaptation period in SIEM, the test-products were fed at final concentrations of 1.4 mg/ml EPA/DHA-Lys or 1 mg/ml L-rhamnose in SIEM during an intervention period of 72 hrs. Cultivation in SIEM without any additional substance served as control condition.\nSamples were taken from the lumen and the dialysate every 24 hrs (t0, t24, t48 and t72) to study the metabolic activity of the gut microbiota (SCFA production) and changes in composition of the gut microbiota (16S rRNA gene analysis).\nSamples were analyzed for SCFA by ion-chromatography.\nA second TIM-2 study was performed, using conditions as described under Example 3 but applying a different human fecal microbiota (termed microbiota 2), to assess whether the observed effects are dependent on the initial microbiota composition.\nT1=EPA/DHA-Lys (ω-3); T2=L-rhamnose."}, "[4]": {"settings": "cited from earlier work"}, "[5]": {"settings": "in vivo; cited from earlier work"}, "[6]": {"system": "human fecal microbiota", "experiment": "I-screen intestinal screening model, SCFA production (Example 1)", "assay_type": "cell-based", "settings": "24 h incubation, mean of triplicates", "protocol": "as §1, with “previously. These standard adult gut microbiota sets were stored at −80° C. in 12% glycerol.” for “previously.”\nas §2, §3, §4"}},
  "data": [
    {"compound": "NCCCC[C@H](N)C(=O)O", "note": "[Lys, L-lysine]", "values": [
      {"measurement": "Propionate/acetate ratio", "setting": "[1]", "value": 0.40},
      {"measurement": "Acetate, change compared to control", "setting": "[1]", "value": "+8.81 mM"},
      {"measurement": "Propionate, change compared to control", "setting": "[1]", "value": "+2.12 mM"},
      {"measurement": "n-Butyrate, change compared to control", "setting": "[1]", "value": "+0.29 mM"}
    ]},
    {"compound": "C[C@H](O)[C@H](O)[C@@H](O)[C@@H](O)C=O", "note": "[rhamnose, L-rhamnose]", "values": [
      {"measurement": "Cumulative production of acetate", "setting": "[2]; 0 h", "value": 0.00, "unit": "mmol"},
      {"measurement": "Cumulative production of butyrate", "setting": "[2]; 0 h", "value": 0.00, "unit": "mmol"},
      {"measurement": "Cumulative production of propionate", "setting": "[2]; 0 h", "value": 0.00, "unit": "mmol"},
      {"measurement": "Pr/Ac (propionate-to-acetate ratio)", "setting": "[2]; 24 h", "value": 0.57},
      {"measurement": "Cumulative production of acetate", "setting": "[2]; 24 h", "value": 25.30, "unit": "mmol"},
      {"measurement": "Cumulative production of butyrate", "setting": "[2]; 24 h", "value": 15.69, "unit": "mmol"},
      {"measurement": "Cumulative production of propionate", "setting": "[2]; 24 h", "value": 14.30, "unit": "mmol"},
      {"measurement": "Pr/Ac (propionate-to-acetate ratio)", "setting": "[2]; 48 h", "value": 0.56},
      {"measurement": "Cumulative production of acetate", "setting": "[2]; 48 h", "value": 56.28, "unit": "mmol"},
      {"measurement": "Cumulative production of butyrate", "setting": "[2]; 48 h", "value": 35.02, "unit": "mmol"},
      {"measurement": "Cumulative production of propionate", "setting": "[2]; 48 h", "value": 31.64, "unit": "mmol"},
      {"measurement": "Pr/Ac (propionate-to-acetate ratio)", "setting": "[2]; 72 h", "value": 0.56},
      {"measurement": "Cumulative production of acetate", "setting": "[2]; 72 h", "value": 81.62, "unit": "mmol"},
      {"measurement": "Cumulative production of butyrate", "setting": "[2]; 72 h", "value": 52.10, "unit": "mmol"},
      {"measurement": "Cumulative production of propionate", "setting": "[2]; 72 h", "value": 45.41, "unit": "mmol"},
      {"measurement": "Ratio of SCFA: acetate as percentage of acetate + propionate + butyrate", "setting": "[2]; microbiota 1, average", "value": 51.1, "unit": "%"},
      {"measurement": "Ratio of SCFA: butyrate as percentage of acetate + propionate + butyrate", "setting": "[2]; microbiota 1, average", "value": 28.1, "unit": "%"},
      {"measurement": "Ratio of SCFA: propionate as percentage of acetate + propionate + butyrate", "setting": "[2]; microbiota 1, average", "value": 20.8, "unit": "%"},
      {"measurement": "Cumulative production of acetate", "setting": "[3]; 0 h", "value": 0.00, "unit": "mmol"},
      {"measurement": "Cumulative production of butyrate", "setting": "[3]; 0 h", "value": 0.00, "unit": "mmol"},
      {"measurement": "Cumulative production of propionate", "setting": "[3]; 0 h", "value": 0.00, "unit": "mmol"},
      {"measurement": "Pr/Ac (propionate-to-acetate ratio)", "setting": "[3]; 24 h", "value": 0.57},
      {"measurement": "Cumulative production of acetate", "setting": "[3]; 24 h", "value": 25.30, "unit": "mmol"},
      {"measurement": "Cumulative production of butyrate", "setting": "[3]; 24 h", "value": 15.69, "unit": "mmol"},
      {"measurement": "Cumulative production of propionate", "setting": "[3]; 24 h", "value": 14.30, "unit": "mmol"},
      {"measurement": "Pr/Ac (propionate-to-acetate ratio)", "setting": "[3]; 48 h", "value": 0.56},
      {"measurement": "Cumulative production of acetate", "setting": "[3]; 48 h", "value": 56.28, "unit": "mmol"},
      {"measurement": "Cumulative production of butyrate", "setting": "[3]; 48 h", "value": 35.02, "unit": "mmol"},
      {"measurement": "Cumulative production of propionate", "setting": "[3]; 48 h", "value": 31.64, "unit": "mmol"},
      {"measurement": "Pr/Ac (propionate-to-acetate ratio)", "setting": "[3]; 72 h", "value": 0.56},
      {"measurement": "Cumulative production of acetate", "setting": "[3]; 72 h", "value": 81.62, "unit": "mmol"},
      {"measurement": "Cumulative production of butyrate", "setting": "[3]; 72 h", "value": 52.10, "unit": "mmol"},
      {"measurement": "Cumulative production of propionate", "setting": "[3]; 72 h", "value": 45.41, "unit": "mmol"},
      {"measurement": "Ratio of SCFA: acetate as percentage of acetate + propionate + butyrate", "setting": "[3]; microbiota 2, average", "value": 45.7, "unit": "%"},
      {"measurement": "Ratio of SCFA: butyrate as percentage of acetate + propionate + butyrate", "setting": "[3]; microbiota 2, average", "value": 29.0, "unit": "%"},
      {"measurement": "Ratio of SCFA: propionate as percentage of acetate + propionate + butyrate", "setting": "[3]; microbiota 2, average", "value": 25.3, "unit": "%"},
      {"measurement": "Circulating propionate after L-rhamnose", "setting": "[4]; acute intake of 25 g L-rhamnose", "value": "significant increase"},
      {"measurement": "Serum propionate after L-rhamnose", "setting": "[4]; up to 25.5 g L-rhamnose/day for seven days", "value": "no increase"}
    ]},
    {"compound": "CC(=O)O", "note": "[acetate]", "values": [
      {"measurement": "Systemic availability of colonic SCFA", "setting": "[5]", "value": "~36", "unit": "%"}
    ]},
    {"compound": "N=C(N)NCCC[C@H](N)C(=O)O", "note": "[Arg, L-arginine]", "values": [
      {"measurement": "Propionate/acetate ratio", "setting": "[1]", "value": 0.40},
      {"measurement": "Acetate, change compared to control", "setting": "[1]", "value": "+8.29 mM"},
      {"measurement": "Propionate, change compared to control", "setting": "[1]", "value": "+2.02 mM"},
      {"measurement": "n-Butyrate, change compared to control", "setting": "[1]", "value": "+0.71 mM"}
    ]},
    {"compound": "Inulin", "values": [
      {"measurement": "n-Butyrate, change compared to control", "setting": "[6]", "value": "+0.46 mM"},
      {"measurement": "Propionate, change compared to control", "setting": "[6]; controls ~8 mM propionate", "value": "+0.03 mM"},
      {"measurement": "Acetate, change compared to control", "setting": "[6]; controls ~40 mM acetate", "value": "+5.87 mM"}
    ]},
    {"compound": "NCCC[C@H](N)C(=O)O", "note": "[Orn, L-ornithine]", "values": [
      {"measurement": "Propionate/acetate ratio", "setting": "[1]", "value": 0.36},
      {"measurement": "Acetate, change compared to control", "setting": "[1]", "value": "+10.15 mM"},
      {"measurement": "Propionate, change compared to control", "setting": "[1]", "value": "+1.74 mM"},
      {"measurement": "n-Butyrate, change compared to control", "setting": "[1]", "value": "+0.19 mM"}
    ]},
    {"compound": "CCCC(=O)O", "note": "[butyrate]", "values": [
      {"measurement": "Systemic availability of colonic SCFA", "setting": "[5]", "value": "~2", "unit": "%"}
    ]}
  ]
}
